{"source": "patent US11753363B2", "about": "“13-oxidized ingenol derivative and use thereof” (Tianjin Pharmaceutical Da Ren Tang Group Corp., Ltd. …, priority 2017, dated 2023)", "key": {"[1]": {"system": "A549 (human lung cancer cells)", "test": "Inhibition of proliferation of tumor cell lines (MTT), A549", "type": "cell-based", "conditions": "Homo sapiens, A549, 72 h, read-out: IC50 value of compound for inhibition of proliferation of tumor cell lines, A549", "procedure,_shortened": "(§1)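 Cells are plated at about 1×10^5·mL^−1, left to adhere for 24 h, and incubated with serial compound concentrations for 72 h. Viability is measured by MTT reduction (4 h) with absorbance at 570 nm, and IC50 is derived from regression of inhibition rate on log concentration.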"}, "[2]": {"system": "BGC-823 (human gastric cancer cells)", "test": "Inhibition of proliferation of tumor cell lines (MTT), BGC-823", "type": "cell-based", "conditions": "Homo sapiens, BGC-823, 72 h, read-out: IC50 value of compound for inhibition of proliferation of tumor cell lines, BGC-823", "procedure,_shortened": "as §1"}, "[3]": {"system": "LOVO (human colon cancer cells)", "test": "Inhibition of proliferation of tumor cell lines (MTT), LOVO", "type": "cell-based", "conditions": "Homo sapiens, 72 h, read-out: IC50 value of compound for inhibition of proliferation of tumor cell lines, LOVO", "procedure,_shortened": "as §1"}, "[4]": {"system": "K562 (human leukemia cells)", "test": "Inhibition of proliferation of tumor cell lines (MTT), K562", "type": "cell-based", "conditions": "Homo sapiens, K562, 72 h, read-out: IC50 value of compound for inhibition of proliferation of tumor cell lines, K562", "procedure,_shortened": "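Cells in RPMI 1640 with 10% calf serum; adherent lines seeded at about 1×10^5/mL and attached 24 h, K562 at 2×10^5/mL. Compounds added in quadruplicate, 72 h at 37 °C, 5% CO2; MTT 4 h, DMSO-dissolved formazan read at 570 nm. IC50 from log-concentration versus inhibition-rate regression.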"}, "[5]": {"system": "SMMC-7721 (human liver cancer cells)", "test": "Inhibition of proliferation of tumor cell lines (MTT), SMMC-7721", "type": "cell-based", "conditions": "Homo sapiens, SMMC-7721, 72 h, read-out: IC50 value of compound for inhibition of proliferation of tumor cell lines, SMMC-7721", "procedure,_shortened": "as §1"}, "[6]": {"system": "MCF-7 (human breast cancer cells)", "test": "Inhibition of proliferation of tumor cell lines (MTT), MCF-7", "type": "cell-based", "conditions": "Homo sapiens, MCF7, MCF-7, 72 h, read-out: IC50 value of compound for inhibition of proliferation of tumor cell lines, MCF-7", "procedure,_shortened": "as §1"}, "[7]": {"system": "HeLa (human cervical cancer cells)", "test": "Inhibition of proliferation of tumor cell lines (MTT), HeLa", "type": "cell-based", "conditions": "Homo sapiens, 72 h, read-out: IC50 value of compound for inhibition of proliferation of tumor cell lines, HeLA", "procedure,_shortened": "as §1"}, "[8]": {"system": "mouse B16-F10 melanoma cells", "test": "Inhibition of proliferation of tumor cell lines (MTT), B16-F10", "type": "cell-based", "conditions": "Mus musculus, B16-F10, 72 h, read-out: IC50 value of compound for inhibition of proliferation of tumor cell lines, B16-F10", "procedure,_shortened": "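IC50 came from regressing inhibition rate against log concentration, using MTT absorbance at 570 nm after 4 h with the dye. Before that, B16-F10 cells seeded at about 1×10^5/mL in RPMI 1640 plus 10% calf serum had 72 h of compound, four wells per concentration, after 24 h attachment.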"}, "[9]": {"system": "neutrophilic granulocytes", "test": "Neutrophil oxidative burst (luminol chemiluminescence)", "type": "cell-based", "conditions": "Neutrophil; 0.1 μg/mL; rat neutrophils; (Csample−Ccontrol)/Ccontrol×100%; read-out: Efficiency of compounds in stimulating neutrophil oxidative burst", "procedure,_shortened": "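Efficiency (%) is (Csample−Ccontrol)/Ccontrol×100%, from luminol chemiluminescence (1 mM stock). Cells were rat peripheral-blood neutrophils from the abdominal aorta, in Hanks, 1×10^5 per well.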"}, "[10]": {"system": "release of IL-8 by human keratinocytes (HaCaT)", "test": "Release of IL-8 by human keratinocytes (HaCaT), IL-8 Elisa", "type": "cell-based", "conditions": "Homo sapiens, HaCaT; 0.1 μg/mL; 24 h; (Csample−Ccontrol)/Ccontrol×100%; read-out: Efficiency of compound in stimulating the release of IL-8 by HaCaT cells", "procedure,_shortened": "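IL-8 in supernatants was quantified by ELISA after 24 h compound treatment at several concentrations and expressed as % efficiency, (Csample − Ccontrol)/Ccontrol × 100%. Cells were plated at 1×10^4/well in MEM + 10% FBS and serum-reduced to 1% FBS for 3-6 h before dosing.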"}, "[11]": {"system": "B16-F0 mouse melanoma", "test": "Antitumor activity in B16-F0 mouse melanoma model", "type": "in vivo", "conditions": "female C57BL/6J mice, intradermal B16 tumor, skin administration once per day for 3 days, 20 μL/mouse, tumor weight on day 19", "experimental": "This Example investigated the antitumor activity of compounds in B16-F0 mouse melanoma model.\nIn vitro passage of B16-F0 tumor source was inoculated subcutaneously into female C57BL/6J mice, and passage was carried out after tumor formation. After passage, the subcutaneous tumor tissue of the tumor-bearing mice was taken and ground with 3 times amount of physiological saline to form a tumor cell suspension, and 0.2 mL/mouse of which was inoculated subcutaneously into the axilla of forelimb of mice, which were used as the tumor-source mice. Female C57BL/6J mice were taken and their hair in an area of 4 cm^2 on the neck and back was shaven. After anesthesia with diethyl ether, B16 tumor source was inoculated intradermally at 0.05 mL/mouse. After 3 days of inoculation, the skin was continuously administered for 3 days, once per day, 20 μL/mouse each time, and in the test, a solvent group as a negative control group was included. On the 19th day of the experiment, the experiment was terminated. After the mice were euthanized, the intradermally transplanted tumors were completely separated and excised, and the tumor was weighed to calculate the tumor inhibition rate. Calculation formula of tumor inhibition rate: tumor inhibition rate (%)=(Wmodel group−Wadministration group)/Wmodel group×100%\nThe tumor growths of the experimental group and the solvent control group were compared to evaluate the antitumor activity of each compound, and the compound with P<0.05 was considered to be effective."}}, "data": [{"smiles": "CCCCCCCCCCCC(=O)O[C@@]12C[C@@H](C)[C@]34C=C(C)[C@H](OC(=O)c5c(CC)noc5CC)[C@@]3(O)[C@H](O)C(CO)=C[C@H](C4=O)[C@@H]1C2(C)C", "note": "[Compound 22, 3-O-(3,5-diethylisoxazolyl-4-formyl)-13-O-dodecanoyl-ingenol]", "values": [{"measurement": "IC50", "setting": "[1]", "value": 18.3, "unit": "µg/mL"}, {"measurement": "IC50", "setting": "[2]", "value": 11.3, "unit": "µg/mL"}, {"measurement": "IC50", "setting": "[3]", "value": 11, "unit": "µg/mL"}, {"measurement": "IC50", "setting": "[4]", "value": 1.14, "unit": "µg/mL"}, {"measurement": "IC50", "setting": "[5]", "value": 20.1, "unit": "µg/mL"}, {"measurement": "IC50", "setting": "[6]", "value": 10.9, "unit": "µg/mL"}, {"measurement": "IC50", "setting": "[7]", "value": 9.59, "unit": "µg/mL"}, {"measurement": "IC50", "setting": "[8]", "value": 2.96, "unit": "µg/mL"}, {"measurement": "activation at 0.1 µg/mL", "setting": "[9]", "value": 124, "unit": "%"}, {"measurement": "activation at 0.1 µg/mL", "setting": "[10]", "value": 144, "unit": "%"}, {"measurement": "Tumor-inhibition rate", "setting": "[11]", "value": 39.5, "unit": "%"}]}]}
